Experimental data as given in ChEMBL document CHEMBL1201862, “PubChem BioAssay data set” (2004).
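Results reflect a 48-hour exposure of cells in 96-well plates to compound at five concentrations. The concentration for 50% growth inhibition is given as GI50.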 Active and inactive are the calls of the source. Cut-off read from the data, not from the text of the source: active = GI50 up to about 1.1 µM and inactive = higher.

Experiments:
Test in all cases: DTP human tumour cell line panel, 48 h
[1] = tested on: BT-549
[2] = tested on: DLD-1
[3] = tested on: DMS-114
[4] = tested on: DMS-273
[5] = tested on: HOP-18
[6] = tested on: KM-20L2
[7] = tested on: SNB-78
[8] = tested on: XF498
[9] = tested on: RXF 631

Structure (SMILES) | GI50 [1] | GI50 [2] | GI50 [3] | GI50 [4] | GI50 [6] | GI50 [7] | GI50 [8] | further results
O=C(NNCc1ccc(Cl)cc1)Nc1cccc2ccccc12 | 97.1 µM (inactive) |  |  |  |  |  |  | 
COc1ccc(Nc2nc3ccc(C(F)(F)F)cc3nc2C(=O)O)cc1 | 2.71 µM (inactive) |  |  |  |  |  |  | 
CC(=O)OCC1OC(NC(=S)Nn2c(-c3ccccc3)nc3ccccc3c2=O)C(OC(C)=O)C(OC(C)=O)C1OC(C)=O (stereo not drawn) | > 100 µM (inactive) |  |  |  |  |  |  | 
COc1ccc(/N=C\c2ccc(N(CCC#N)CCC#N)cc2)cc1 | > 38.9 µM (inactive) | 24.9 µM (inactive) | 27.5 µM (inactive) | 31.4 µM (inactive) | 9.68 µM (inactive) | > 100 µM (inactive) | > 100 µM (inactive) | GI50 [5]: > 100 µM (inactive)
COC(=O)[C@@H]1[C@H](O)[C@H](C)[C@H](O)[C@H](C)/C=C\C=C(\C)C(=O)Nc2c(C)c(OC(C)=O)c3c(c2O)C(=O)C(C)=C2OCOC(=C23)/C(C)=C/[C@@H](O)[C@H](O)[C@@H](C)[C@H]1OC(C)=O | > 100 µM (inactive) |  |  |  |  |  |  | 
O=C1CCC(C(=O)O)C2=C1CCCC2 (stereo not drawn) | > 100 µM (inactive) | > 100 µM (inactive) | > 100 µM (inactive) | 17.1 µM (inactive) |  | > 100 µM (inactive) | > 100 µM (inactive) | GI50 [5]: > 100 µM (inactive)
NCCCN1c2ccccc2Sc2ccc(Cl)cc21 | > 7.62 µM (inactive) |  |  |  |  |  |  | 
COc1cc(/C=C/c2sc3ccccc3[n+]2C)ccc1N(C)C | 0.368 µM (active) |  |  |  |  |  |  | 
O=C(COc1ccc(OCC(=O)N2C(=O)CC/C2=N\c2ccc(Cl)cc2)cc1)N1C(=O)CS/C1=N\c1ccc(Cl)cc1 | 57.4 µM (inactive) |  |  |  |  |  |  | 
CC1=C(C(=O)Nc2ccccc2)C(c2cccc3ccccc23)C(C(=O)Nc2ccccc2)=C(C)N1 |  | 28.2 µM (inactive) | 24.9 µM (inactive) | 19.1 µM (inactive) | 19.3 µM (inactive) | 28.7 µM (inactive) |  | GI50 [5]: 24 µM (inactive)
CC(C)N1CN(C(C(=O)N[C@@H]2C(=O)N3C2SC(C)(C)C3C(=O)O)c2ccc(O)cc2)CSC1=S (stereo partly drawn) |  | > 100 µM (inactive) | > 100 µM (inactive) | > 100 µM (inactive) | > 100 µM (inactive) | > 100 µM (inactive) | > 100 µM (inactive) | GI50 [5]: > 100 µM (inactive)
O=S1(=O)OCCOS(=O)(=O)C1(Br)Cc1ccccc1 |  | > 100 µM (inactive) | > 100 µM (inactive) | > 100 µM (inactive) | > 100 µM (inactive) | > 100 µM (inactive) | > 100 µM (inactive) | 
N=C1CSC2=NC3=C(CCC/C3=C\c3ccccc3)C(c3ccccc3)N12 (stereo not drawn) |  | 5.4 µM (inactive) | 2.8 µM (inactive) | 3.8 µM (inactive) | 4.37 µM (inactive) | 5.77 µM (inactive) | 20.7 µM (inactive) | 
COc1ccc(OC)c(/C(C)=N/NC(N)=S)c1 |  | > 100 µM (inactive) | > 100 µM (inactive) | > 100 µM (inactive) | > 100 µM (inactive) | > 100 µM (inactive) | > 100 µM (inactive) | GI50 [5]: > 100 µM (inactive)
O=C1C=CC(=O)c2c1ccc1c3ccccc3n(CCCCCCCCn3c4ccccc4c4ccc5c(c43)C(=O)C=CC5=O)c21 | > 100 µM (inactive) |  |  |  |  |  |  | 
COc1ccc(Nc2nnc(CCCCCCCCc3nnc(Nc4ccc(OC)cc4)o3)o2)cc1 | 80.9 µM (inactive) |  |  |  |  |  |  | 
CCOC(=O)c1cn2c(n1)sc1c(Cl)c(Cl)ccc12 | 33 µM (inactive) |  |  |  |  |  |  | 
CC1=NC2(C(=O)O)C3(C(=O)O)N=C(C)OC3(C(F)(F)F)C2(C(F)(F)F)O1 (stereo not drawn) |  | > 100 µM (inactive) | > 100 µM (inactive) | > 100 µM (inactive) | > 100 µM (inactive) | > 100 µM (inactive) | > 100 µM (inactive) | GI50 [5]: > 100 µM (inactive)
O=C(/C=C/c1cccc(Br)c1)N1CCN(CCOC(c2ccccc2)c2ccccc2)CC1 | 26.5 µM (inactive) |  |  |  |  |  |  | 
CCCCCNC(=O)OC1CCn2c1nc1c2C(=O)C(C)=C(N2CC2)C1=O (stereo not drawn) | 1.67 µM (inactive) |  |  |  |  |  |  | 
OCC1OC(n2cnc3c(Cl)nc(Nc4ccc(Cl)c(Cl)c4)nc32)CC1O (stereo not drawn) | 9.98 µM (inactive) |  |  |  |  |  |  | 
COc1cccc2c(=O)oc(-c3ccccc3C)nc12 | 21.5 µM (inactive) |  |  |  |  |  |  | 
CC(C)(C)N1C=[N+](C(C)(C)C)CC1 | > 100 µM (inactive) |  |  |  |  |  |  | 
CC(C)(C)C(=C[S+]([O-])/N=C/c1ccccc1)C(C)(C)C (stereo not drawn) |  | 31 µM (inactive) | 28.1 µM (inactive) | 32.3 µM (inactive) | 52.8 µM (inactive) | 12.2 µM (inactive) | 23 µM (inactive) | GI50 [9]: 38.6 µM (inactive)
Cc1ccc(-c2cc(N)n(-c3nc4c([nH]3)c(=O)n(C)c(=O)n4C)n2)cc1 | 6.95 µM (inactive) |  |  |  |  |  |  | 
Cc1ccnc2nc(-c3ccc4ccccc4c3)cc(O)c12 | 5.32 µM (inactive) |  |  |  |  |  |  | 
COc1ccc(-c2cc(=O)c3cc(O)ccc3o2)c(OC)c1OC |  | 36.4 µM (inactive) | 27.9 µM (inactive) |  | 19.3 µM (inactive) |  | 30.5 µM (inactive) | GI50 [9]: 33.2 µM (inactive)
